PubChem BioAssay AID2060495 (Molecular Pharmacology Branch, DTP, NCI, 2025)

Test system: 521955-158-R2-J5-PDC complex spheroid viability
Assay: Anticancer human tumor 521955-158-R2-J5-PDC patient-derived pancreatic carcinoma cell line growth inhibition [GQUAD]
Conditions: for IC50: curve of first compound; for viability, T/C: stronger effect = lower value
In short: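 Tumor cells were grown as complex spheroids with HUVEC endothelial cells and mesenchymal stem cells as stroma. G-quadruplex stabilizers were combined with targeted agents over half-log dilutions from near the clinical Cmax, or from 10 microM.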

[1] = second compound 0.0316 µM, first compound 0.0316 µM
[2] = second compound 0.0316 µM, first compound 0.1 µM
[3] = second compound 0.0316 µM, first compound 0.316 µM
[4] = second compound 0.0316 µM, first compound 1 µM
[5] = second compound 0.0316 µM, first compound 3.16 µM
[6] = second compound 0.0316 µM, first compound 10 µM
[7] = second compound 0.1 µM, first compound 0.0316 µM
[8] = second compound 0.1 µM, first compound 0.1 µM
[9] = second compound 0.1 µM, first compound 0.316 µM
[10] = second compound 0.1 µM, first compound 1 µM
[11] = second compound 0.1 µM, first compound 3.16 µM
[12] = second compound 0.1 µM, first compound 10 µM
[13] = second compound 0.316 µM, first compound 0.0316 µM
[14] = second compound 0.316 µM, first compound 0.1 µM
[15] = second compound 0.316 µM, first compound 0.316 µM
[16] = second compound 0.316 µM, first compound 1 µM
[17] = second compound 0.316 µM, first compound 3.16 µM
[18] = second compound 0.316 µM, first compound 10 µM
[19] = second compound 1 µM, first compound 0.0316 µM
[20] = second compound 1 µM, first compound 0.1 µM
[21] = second compound 1 µM, first compound 0.316 µM
[22] = second compound 1 µM, first compound 1 µM
[23] = second compound 1 µM, first compound 3.16 µM
[24] = second compound 1 µM, first compound 10 µM
[25] = second compound 3.16 µM, first compound 0.0316 µM
[26] = second compound 3.16 µM, first compound 0.1 µM
[27] = second compound 3.16 µM, first compound 0.316 µM
[28] = second compound 3.16 µM, first compound 1 µM
[29] = second compound 3.16 µM, first compound 3.16 µM
[30] = second compound 3.16 µM, first compound 10 µM
[31] = second compound 10 µM, first compound 0.0316 µM
[32] = second compound 10 µM, first compound 0.1 µM
[33] = second compound 10 µM, first compound 0.316 µM
[34] = second compound 10 µM, first compound 1 µM
[35] = second compound 10 µM, first compound 3.16 µM
[36] = second compound 10 µM, first compound 10 µM
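Further: spheroids exposed to agents for one week before reading.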
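Wherever viability, T/C is given: 100% = DMSO vehicle control viability.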

O=C(NO)c1cnc(N2CCN(S(=O)(=O)c3ccc4ccccc4c3)CC2)nc1 + CN(C)c1ccc(Nc2c3ccc(NC(=O)CCN4CCCC4)cc3nc3cc(NC(=O)CCN4CCCC4)ccc23)cc1
IC50 (second compound 0.0316 µM): 703 nM | IC50 (second compound 0.1 µM): 668 nM | IC50 (second compound 0.316 µM): 491 nM | IC50 (second compound 1 µM): 550 nM | IC50 (second compound 3.16 µM): 734 nM | IC50 (second compound 10 µM): 376 nM | viability, T/C [1]: 127% | viability, T/C [2]: 105% | viability, T/C [3]: 95.3% | viability, T/C [4]: 30.6% | viability, T/C [5]: 0.19% | viability, T/C [6]: 0.15% | viability, T/C [7]: 120% | viability, T/C [8]: 124% | viability, T/C [9]: 94.7% | viability, T/C [10]: 26% | viability, T/C [11]: 0.16% | viability, T/C [12]: 0.1% | viability, T/C [13]: 118% | viability, T/C [14]: 115% | viability, T/C [15]: 58% | viability, T/C [16]: 31.6% | viability, T/C [17]: 0.13% | viability, T/C [18]: 0.12% | viability, T/C [19]: 121% | viability, T/C [20]: 116% | viability, T/C [21]: 60.9% | viability, T/C [22]: 37% | viability, T/C [23]: 0.15% | viability, T/C [24]: 0.12% | viability, T/C [25]: 109% | viability, T/C [26]: 142% | viability, T/C [27]: 87.5% | viability, T/C [28]: 37.7% | viability, T/C [29]: 0.28% | viability, T/C [30]: 0.13% | viability, T/C [31]: 94% | viability, T/C [32]: 94.1% | viability, T/C [33]: 53.7% | viability, T/C [34]: 17.1% | viability, T/C [35]: 0.27% | viability, T/C [36]: 0.21%

CC(C)n1c(=O)n(C)c2cnc3cc(F)c(-c4ccc(OCCCN5CCCCC5)nc4)cc3c21 + Cc1[nH]c2ccc(F)cc2c1-c1nc2c3cccnc3c3ncccc3c2[nH]1
IC50 (second compound 0.0316 µM): > 10000 nM | IC50 (second compound 0.1 µM): > 10000 nM | IC50 (second compound 0.316 µM): > 10000 nM | IC50 (second compound 1 µM): > 10000 nM | IC50 (second compound 3.16 µM): > 10000 nM | IC50 (second compound 10 µM): > 10000 nM | viability, T/C [1]: 116% | viability, T/C [2]: 90.8% | viability, T/C [3]: 109% | viability, T/C [4]: 84.5% | viability, T/C [5]: 101% | viability, T/C [6]: 94.4% | viability, T/C [7]: 94.8% | viability, T/C [8]: 114% | viability, T/C [9]: 97.7% | viability, T/C [10]: 105% | viability, T/C [11]: 115% | viability, T/C [12]: 84.8% | viability, T/C [13]: 105% | viability, T/C [14]: 108% | viability, T/C [15]: 116% | viability, T/C [16]: 104% | viability, T/C [17]: 90.8% | viability, T/C [18]: 83.7% | viability, T/C [19]: 101% | viability, T/C [20]: 113% | viability, T/C [21]: 104% | viability, T/C [22]: 94.9% | viability, T/C [23]: 108% | viability, T/C [24]: 91.1% | viability, T/C [25]: 107% | viability, T/C [26]: 110% | viability, T/C [27]: 109% | viability, T/C [28]: 102% | viability, T/C [29]: 115% | viability, T/C [30]: 94.2% | viability, T/C [31]: 114% | viability, T/C [32]: 92.8% | viability, T/C [33]: 115% | viability, T/C [34]: 110% | viability, T/C [35]: 108% | viability, T/C [36]: 79.1%

CC1COCCN1c1cc(C2(S(C)(=N)=O)CC2)nc(-c2ccnc3[nH]ccc23)n1 (stereo not drawn) + Cc1[nH]c2ccc(F)cc2c1-c1nc2c3cccnc3c3ncccc3c2[nH]1
IC50 (second compound 0.0316 µM): 698 nM | IC50 (second compound 0.1 µM): 793 nM | IC50 (second compound 0.316 µM): 736 nM | IC50 (second compound 1 µM): 712 nM | IC50 (second compound 3.16 µM): 806 nM | IC50 (second compound 10 µM): 724 nM | viability, T/C [1]: 113% | viability, T/C [2]: 103% | viability, T/C [3]: 114% | viability, T/C [4]: 22.6% | viability, T/C [5]: 10.1% | viability, T/C [6]: 11.7% | viability, T/C [7]: 96.6% | viability, T/C [8]: 109% | viability, T/C [9]: 111% | viability, T/C [10]: 35.9% | viability, T/C [11]: 8.56% | viability, T/C [12]: 8.84% | viability, T/C [13]: 108% | viability, T/C [14]: 91.7% | viability, T/C [15]: 101% | viability, T/C [16]: 31.7% | viability, T/C [17]: 9.15% | viability, T/C [18]: 10.3% | viability, T/C [19]: 93.2% | viability, T/C [20]: 104% | viability, T/C [21]: 117% | viability, T/C [22]: 27.1% | viability, T/C [23]: 11.5% | viability, T/C [24]: 11.7% | viability, T/C [25]: 85.2% | viability, T/C [26]: 105% | viability, T/C [27]: 99.1% | viability, T/C [28]: 39.3% | viability, T/C [29]: 13.7% | viability, T/C [30]: 8.99% | viability, T/C [31]: 109% | viability, T/C [32]: 105% | viability, T/C [33]: 110% | viability, T/C [34]: 27.4% | viability, T/C [35]: 14.7% | viability, T/C [36]: 10.9%

COc1ccc([C@@H](O)c2cc(-c3ncnc4cc(N5CCOCC5)ccc34)c(F)cc2Cl)nn1 + Cc1[nH]c2ccc(F)cc2c1-c1nc2c3cccnc3c3ncccc3c2[nH]1
IC50 (second compound 0.0316 µM): 3520 nM | IC50 (second compound 0.1 µM): 2690 nM | IC50 (second compound 0.316 µM): 3700 nM | IC50 (second compound 1 µM): 3670 nM | IC50 (second compound 3.16 µM): 1960 nM | IC50 (second compound 10 µM): 3080 nM | viability, T/C [1]: 93% | viability, T/C [2]: 92.3% | viability, T/C [3]: 73.7% | viability, T/C [4]: 62.3% | viability, T/C [5]: 56% | viability, T/C [6]: 34.5% | viability, T/C [7]: 88.6% | viability, T/C [8]: 93% | viability, T/C [9]: 69.7% | viability, T/C [10]: 66.7% | viability, T/C [11]: 47.1% | viability, T/C [12]: 34.1% | viability, T/C [13]: 82.3% | viability, T/C [14]: 95.6% | viability, T/C [15]: 83.2% | viability, T/C [16]: 68.6% | viability, T/C [17]: 54.3% | viability, T/C [18]: 34.9% | viability, T/C [19]: 88.4% | viability, T/C [20]: 112% | viability, T/C [21]: 88.5% | viability, T/C [22]: 66.6% | viability, T/C [23]: 58.4% | viability, T/C [24]: 32.2% | viability, T/C [25]: 86.1% | viability, T/C [26]: 90.5% | viability, T/C [27]: 75.9% | viability, T/C [28]: 60.4% | viability, T/C [29]: 43.3% | viability, T/C [30]: 32.2% | viability, T/C [31]: 99.4% | viability, T/C [32]: 88.6% | viability, T/C [33]: 74.9% | viability, T/C [34]: 64.3% | viability, T/C [35]: 54.6% | viability, T/C [36]: 30.4%
